Results: ChEMBL document CHEMBL5506004, “Optimizing drug-like properties of selective butyrylcholinesterase inhibitors for cognitive improvement: Enhancing aqueous solubility by disrupting molecular plane” (Eur J Med Chem, 2024)
The source made the active and inactive calls. The rule behind the calls is not given here.

Assays:
[1] = Cytotoxicity against human L02 cells assessed as survival rate at 100 uM incubated for 24 hrs by MTT assay relative to control; format: toxicity, cell-based; details: read-out: Survival
[2] = Acute toxicity in ICR mouse assessed as animal growth at 1 g/kg, IG; details: in vivo, po, 1000 mg/kg
SH-SY5Y = experiment: Neuroprotective activity against amyloid beta (1 to 42)-induced neuronal death in human SH-SY5Y cells assessed as cell viability pretreated for 1 hr followed by amyloid beta (1 to 42) addition measured after 24 hrs by MTT assay; format: functional, cell-based; details: dose 1-10 µM, time 25.0 hrs
hERG (KCNH2) = hERG (KCNH2) (Homo sapiens, UniProt Q12809); experiment: Inhibition of hERG at 10 uM by manual patch clamp assay relative to control; format: toxicity
Sequence of hERG (KCNH2) (Q12809 whole entry): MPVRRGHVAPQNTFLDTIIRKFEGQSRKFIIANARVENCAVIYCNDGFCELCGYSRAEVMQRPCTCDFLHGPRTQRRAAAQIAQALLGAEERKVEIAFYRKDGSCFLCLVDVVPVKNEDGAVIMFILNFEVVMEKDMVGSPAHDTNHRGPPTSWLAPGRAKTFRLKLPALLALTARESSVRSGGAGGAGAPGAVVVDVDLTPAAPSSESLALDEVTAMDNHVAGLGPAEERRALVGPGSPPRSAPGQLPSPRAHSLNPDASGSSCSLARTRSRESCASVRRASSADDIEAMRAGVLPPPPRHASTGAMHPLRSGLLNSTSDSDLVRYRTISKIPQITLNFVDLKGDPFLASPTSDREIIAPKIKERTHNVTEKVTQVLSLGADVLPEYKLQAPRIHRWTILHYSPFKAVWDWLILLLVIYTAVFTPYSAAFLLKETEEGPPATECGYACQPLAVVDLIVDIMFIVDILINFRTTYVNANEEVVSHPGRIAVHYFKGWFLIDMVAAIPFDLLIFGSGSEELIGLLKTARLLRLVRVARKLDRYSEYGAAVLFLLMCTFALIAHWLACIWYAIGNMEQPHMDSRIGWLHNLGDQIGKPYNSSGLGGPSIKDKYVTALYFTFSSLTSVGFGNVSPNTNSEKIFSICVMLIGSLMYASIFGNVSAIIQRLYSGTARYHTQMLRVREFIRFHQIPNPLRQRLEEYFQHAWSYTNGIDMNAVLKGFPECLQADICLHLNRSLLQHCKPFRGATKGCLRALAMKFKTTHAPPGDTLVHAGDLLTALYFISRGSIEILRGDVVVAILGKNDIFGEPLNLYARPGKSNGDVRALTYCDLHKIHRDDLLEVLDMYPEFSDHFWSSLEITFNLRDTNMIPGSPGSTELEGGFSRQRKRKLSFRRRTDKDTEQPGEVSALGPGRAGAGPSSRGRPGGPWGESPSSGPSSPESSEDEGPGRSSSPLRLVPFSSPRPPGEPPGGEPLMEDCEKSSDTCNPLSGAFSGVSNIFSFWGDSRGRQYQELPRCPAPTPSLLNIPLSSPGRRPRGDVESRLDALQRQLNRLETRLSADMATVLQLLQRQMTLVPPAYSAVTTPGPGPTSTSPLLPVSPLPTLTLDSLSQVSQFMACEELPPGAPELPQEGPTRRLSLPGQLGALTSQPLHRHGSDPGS

CYP2C9 = CYP2C9 (Homo sapiens, UniProt P11712); experiment: Inhibition of CYP2C9 in human liver microsomes at 10 uM in presence of NADPH-regenerating system by LC-MS/MS analysis relative to control; format: ADME, Microsome
Sequence of CYP2C9 (P11712 whole entry): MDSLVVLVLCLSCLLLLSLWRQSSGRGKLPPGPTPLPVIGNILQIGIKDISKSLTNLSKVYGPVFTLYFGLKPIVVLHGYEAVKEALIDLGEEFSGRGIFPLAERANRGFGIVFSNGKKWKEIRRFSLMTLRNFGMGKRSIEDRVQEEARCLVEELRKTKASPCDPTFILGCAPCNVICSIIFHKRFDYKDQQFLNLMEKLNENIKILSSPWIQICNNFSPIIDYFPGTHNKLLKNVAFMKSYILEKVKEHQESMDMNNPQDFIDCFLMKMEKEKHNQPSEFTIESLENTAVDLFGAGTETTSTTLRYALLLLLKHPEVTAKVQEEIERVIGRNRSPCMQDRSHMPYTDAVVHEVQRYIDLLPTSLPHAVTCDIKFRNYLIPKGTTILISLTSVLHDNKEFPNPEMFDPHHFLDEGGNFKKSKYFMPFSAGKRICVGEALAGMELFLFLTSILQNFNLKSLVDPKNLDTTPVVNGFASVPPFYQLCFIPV

Cytochrome P450 3A4/3A5 = Cytochrome P450 3A4/3A5 (Homo sapiens, UniProt P08684+P20815); experiment: Inhibition of CYP3A4/CYP3A5 in human liver microsomes at 10 uM in presence of NADPH-regenerating system by LC-MS/MS analysis; format: ADME, Microsome
[3] = MRT (infinity) in Sprague-Dawley rat at 10 mg/kg, po measured for 1 to 1440 mins by LC-MS/MS analysis; format: ADME, organism-based; details: in vivo, time 1-1440 min
[4] = AUC (0 to t) in Sprague-Dawley rat at 10 mg/kg, iv measured for 1 to 1440 mins by LC-MS/MS analysis; format: ADME, organism-based; details: in vivo, time 1-1440 min
[5] = AUC (0 to infinity) in Sprague-Dawley rat at 10 mg/kg, iv measured for 1 to 1440 mins by LC-MS/MS analysis; format: ADME, organism-based; details: in vivo, time 1-1440 min
[6] = MRT (infinity) in Sprague-Dawley rat at 10 mg/kg, iv measured for 1 to 1440 mins by LC-MS/MS analysis; format: ADME, organism-based; details: in vivo, time 1-1440 min
[7] = Half life in Sprague-Dawley rat at 10 mg/kg, iv measured for 1 to 1440 mins by LC-MS/MS analysis; format: ADME, organism-based; details: in vivo, time 1-1440 min
[8] = Ratio of AUC (0 to t) in brain to plasma in ICR mouse at 10 mg/kg, po measured for 10 to 480 mins by spectroscopy; format: ADME, organism-based; details: time 10-480 min
Mus musculus [9] = experiment: Cognitive enhancing effect in Amyloid beta (1 to 42)-treated ICR mouse assessed as reduction in trajectory uncertainty at 10 mg/kg, po administered daily measured after 7 to 12 days by Morris water maze test; format: functional, organism-based; details: time 7-12 day
Mus musculus [10] = experiment: Cognitive enhancing effect in Amyloid beta (1 to 42)-treated ICR mouse assessed as shorter arrival time at 10 mg/kg, po administered daily measured after 7 to 12 days by Morris water maze test; format: functional, organism-based; details: time 7-12 day
[11] = Toxicity in Amyloid beta (1 to 42)-treated ICR mouse assessed as body weight change at 10 mg/kg, po administered daily for 12 days; format: organism-based; details: in vivo, 288 h, time 12 day

Question: Which viability at 24 h, 100 µM [1] does the source give for `Nc1nonc1-c1nc2ccccc2n1CC(=O)Nc1ccc(CCN2CCOCC2)cc1` here?
Answer: 87.1%

Question: What about the Activity [2] of the same molecule?
Answer: Non-Toxic

Question: What about the Activity (SH-SY5Y) of the same molecule?
Answer: Dose-Dependent Effect

Question: And the inhibition at 10 µM (hERG (KCNH2))?
Answer: 25.5%

Question: And the inhibition at 10 µM (CYP2C9)?
Answer: 10.9%

Question: And the “inhibition (INH)” value (Cytochrome P450 3A4/3A5)?
Answer: Not Active

Question: And the MRT inf [3]?
Answer: 9.67 h

Question: And the AUC(0-t) [4]?
Answer: 3570 ng·h/mL

Question: And the AUC(0-inf) [5]?
Answer: 3590 ng·h/mL

Question: And the MRT inf [6]?
Answer: 2.57 h

Question: What about the half-life [7] of the same molecule?
Answer: 3.29 h

Question: What about the Kp [8] of the same molecule?
Answer: 0.32

Question: What about the Activity (Mus musculus [9]) of the same molecule?
Answer: Active

Question: And the Activity (Mus musculus [10])?
Answer: Active

Question: And the Activity [11]?
Answer: Non-Toxic
